Data from patent publication US10617719B2, “Deep sea water extract and use thereof” (Taiwan DOW Biotech Co., Ltd., priority 2015, dated 2020).

Test system: Helicobacter pylori
Test: Inhibition of H. pylori growth on LB/sheep blood agar plates containing DSW extract
Type: cell-based, Helicobacter pylori (ten samples from different patients)
Conditions: same concentration of magnesium ions as the DSW extract (MgCl2 285 and 570 mg/L)
Text: The present invention validates that the active components of the deep sea water extract having ability of inhibiting H. pylori growth are not associated with high magnesium, calcium ions and high hardness. […] Also, the present invention uses mass spectrometry to show a relational graph between the intensity value of the 1,070 component of the DSW extract and inhibiting H. pylori growth rate. In one embodiment, prepare the LB agar having the DSW extract with different hardness, the DSW extract with different concentration of EDTA or different concentration of MgCl2, follow by filtration through the 0.22 μm filter membrane or sterilization in an autoclave. Mix the LB agar with sheep blood, and pour the mixture into each 9-cm culture plate. Let each plate cool until its solid to form agar plate. For the LB agar having different concentration of MgCl2, take 2.85 mg MgCl2, add other nutrients and water to make 10 mL agar plate, the agar plate contains 285 mg/L MgCl2. According to above-mentioned procedure, the agar plats having different concentration of MgCl2 are 285 mg/L and 570 mg/L. The present invention also prepares the LB agar having the DSW extract with 1,200 ppm to 6,000 ppm and the 2,400 ppm DSW extract with different concentration of EDTA. The present invention identifies the active components of the DSW extract having the ability of inhibiting H. pylori growth. […]

Compound: [Cl-].[Cl-].[Mg+2] [magnesium ions, MgCl2]
- ability of inhibiting H. pylori growth: does not have the ability of inhibiting H. pylori growth
